The values below come from paper PMC10913476, “A high-throughput target-based screening approach for the identification and assessment of Mycobacterium tuberculosis mycothione reductase inhibitors” (Microbiology Spectrum, 2024).

≈ marks a conversion by molar mass, not a printed value. Like-named read-outs stand apart in the source and are kept apart here.

One data set deals with Mtb H37Ra^lux. The experiment in a line: microbe, parasite or virus in culture. It counts as cell-based, Mycobacterium tuberculosis. The settings on record: for MIC50: Mycobacterium tuberculosis, H37RA.
The target in data set [1] is Mycobacterium tuberculosis mycothione reductase (MtrMtb) (Mycobacterium tuberculosis, UniProt P9WHH3). The experiment in a line: MtrMtb luminescence-coupled enzymatic assay, confirmation screen (11-point dose-response). In kind it is biochemical.
Chain of Mycobacterium tuberculosis mycothione reductase (MtrMtb) (P9WHH3 whole entry): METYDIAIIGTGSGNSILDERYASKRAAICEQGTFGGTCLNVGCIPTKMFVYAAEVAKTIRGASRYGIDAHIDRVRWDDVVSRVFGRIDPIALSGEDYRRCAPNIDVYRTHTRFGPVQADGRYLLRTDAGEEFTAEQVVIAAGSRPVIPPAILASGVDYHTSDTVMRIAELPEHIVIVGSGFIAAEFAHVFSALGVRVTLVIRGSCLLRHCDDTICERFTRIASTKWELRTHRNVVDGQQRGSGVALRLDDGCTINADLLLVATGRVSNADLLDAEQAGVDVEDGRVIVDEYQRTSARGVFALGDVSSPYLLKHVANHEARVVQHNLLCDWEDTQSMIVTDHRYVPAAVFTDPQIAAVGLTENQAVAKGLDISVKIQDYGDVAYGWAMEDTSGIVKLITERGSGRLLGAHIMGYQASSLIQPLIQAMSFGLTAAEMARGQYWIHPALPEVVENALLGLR
Data set [2] in a line: RAW264.7 cytotoxicity (CellTiter-Glo). In kind it is cell-based, murine. The settings on record: mouse, RAW264.7 macrophage-like cells. The protocol: The RAW264.7 cell line was cultured in DMEM supplemented with 10% FBS, 2-mM L-glutamine, 100-U/mL penicillin and 100-µg/mL streptomycin at 37°C and 5% CO2. Cells were seeded on black, clear-bottom 96-well plates at 2.5 × 10^5 cells/mL. Test compounds and reference compounds (BDQ and tamoxifen) were added in nine twofold serial dilutions in 100% DMSO with a top concentration of 25 µM. The plate setup included high (no growth inhibition) and low (100% growth inhibition) controls in columns 12 and 1, respectively. Medium without cell suspension was added to the low control wells. Final DMSO concentration reached 1% for test and control wells. Plates were incubated for 60 hours at 37°C and 5% CO2. Before adding the readout reagent, plates were equilibrated at room temperature for 30 min. The CellTiter-Glo version 2.0 Assay (Promega, cat. #G7572) was then added to test wells in a 1:1 ratio and mixed for 2 min on an orbital shaker. The plate was incubated for 10 min at RT to stabilize the luminescent signal. The luminescence was recorded using Glomax Discover microplate reader (Promega). Cell viability was determined by normalization of the recorded signal and establishment of the 50% cytotoxicity concentration based on the non-linear regression curve analysis (GraphPad Prism version 9). The assay was performed in duplicate in two independent experiments.

The subject of data set [3] is Mtb H37Ra^lux in RAW264.7 murine macrophages. As to the kind of experiment: microbe, parasite or virus in culture. It counts as cell-based, Mycobacterium tuberculosis. The settings on record: for MIC50: Mycobacterium tuberculosis, H37RA, 60 h.
[4] abbreviates: read-out: MIC50 (µM) Mtb H37Ra^lux.
Setting [5] is: sulfonylamine series, fragment molecules, reference compounds, read-out: IC50 (µM) MtrMtb.
[6] abbreviates: sulfonylamine series, fragment molecules, reference compounds.
The mark [7] stands for this setting: read-out: RAW264.7 MIC50 (µM) (Mtb H37Ra^lux).
The mark [8] stands for this setting: read-out: MIC50 (Mtb H37Ra^lux).
Setting [9] is: morpholine series, average IC50 in the confirmation screen (dose-response), unit not in this head, µM, read-out: qIC50 (MtrMtb).
Setting [10] is: morpholine series, acute cellular toxicity, unit not in this head.
Setting [11] is: read-out: RAW264.7 MIC50 (Mtb H37Ra^lux).

As to `CCCNc1cc(Oc2ccc(NS(=O)(=O)c3ccc(C)cc3)c(C(=O)O)c2)ccc1NS(=O)(=O)c1ccc(C)cc1` [Respiri-1179], the MIC50 (with Mtb H37Ra^lux (setting [4]); in data set [3] (setting [7])) was over 25 µM in each case. Moreover, the IC50 in data set [1] (setting [5]) was determined as 1.13 µM. This compound had a cytotoxic concentration (CC50) at 60 h in data set [2] (setting [6]) of over 50 µM.

For `C[C@H]1COCCN1c1nc2c(c(-c3ccc4c(c3)OCO4)n1)CCNCC2` [Respiri-1080], the MIC50 (in the data set on Mtb H37Ra^lux (setting [8]); in data set [3] (setting [11])) was over 25 µM in each case. For the same compound, the IC50 in data set [1] (setting [9]) amounted to 5.98 µM. In data set [2] (setting [10]), the half-maximal cytotoxic concentration (CC50) at 60 h was over 5 µM.

For the compound `C[C@H]1COCCN1c1nc2c(c(-c3ccc(Cl)cc3)n1)CCNCC2` [Respiri-1078], the “anti-mycobacterial activity in whole-cell assay (Mtb H37Ra^lux MIC50), in words” value (“anti-mycobacterial activity” for short) in the data set with Mtb H37Ra^lux is “activity”. Further, the values for the MIC50 (in the data set on Mtb H37Ra^lux (setting [8]); in data set [3] (setting [11])) were 11.9 µM (≈ 4.26 µg/mL) and 14.1 µM (≈ 5.05 µg/mL), respectively. For the same compound, the IC50 in data set [1] (setting [9]) turned out to be 4.47 µM. This compound also came in with a CC50 at 60 h in data set [2] (setting [10]) of 13.7 µM. In addition, the “intracellular activity in macrophage infection assay, in words” value (shortened to “intracellular activity”) in data set [3] is reported as “Intracellular activity was detected”.

With `C[C@H]1COCCN1c1cc(-c2cc3ccccc3s2)c2c(n1)CCNCC2` [Respiri-1084], the MIC50 is over 25 µM in the data set with Mtb H37Ra^lux (setting [8]) and 10.2 µM (≈ 3.88 µg/mL) in data set [3] (setting [11]). For the same compound, the IC50 in data set [1] (setting [9]) is 2.88 µM. The CC50 at 60 h in data set [2] (setting [10]) was determined as 11.9 µM. In addition, the “intracellular activity” value in data set [3] was “Intracellular activity was detected”.

On to `COc1cccc(-c2nc(N3CCOC[C@@H]3C)nc3c2CCNCC3)c1` [Respiri-1076], for which the MIC50 (in the data set with Mtb H37Ra^lux (setting [8]); in data set [3] (setting [11])) was over 25 µM each time. In data set [2] (setting [10]), this compound showed a CC50 at 60 h of over 25 µM.

In the case of `C[C@H]1COCCN1c1nc2c(c(-c3ccc(F)cc3)n1)CCNCC2` [Respiri-1077], the MIC50 (in the data set with Mtb H37Ra^lux (setting [8]); in data set [3] (setting [11])) was over 25 µM each time. Also, the CC50 at 60 h in data set [2] (setting [10]) was over 25 µM.

Turning to `Cn1ccnc1C(=O)c1nccn1C` [Respiri-1210], the MIC50 (in the data set with Mtb H37Ra^lux (setting [4]); in data set [3] (setting [7])) was over 25 µM each time. In addition, in data set [1] (setting [5]), the IC50 was found to be 6.11 µM. The compound also displayed a cytotoxic concentration (CC50) at 60 h in data set [2] (setting [6]) of over 50 µM.

For the compound `C[C@H]1COCCN1c1nc2c(c(-c3cc4ccccc4o3)n1)CCNCC2` [Respiri-1079], the “anti-mycobacterial activity” value with Mtb H37Ra^lux is recorded as “activity”. Also, the MIC50 with Mtb H37Ra^lux (setting [8]) was determined as 5.7 µM (≈ 2.08 µg/mL); in data set [3] (setting [11]), 12.2 µM (≈ 4.44 µg/mL). The IC50 in data set [1] (setting [9]) is 1.99 µM. Further, in data set [2] (setting [10]), the 50% cytotoxic concentration (CC50) at 60 h is 11 µM. Besides, the “intracellular activity” value in data set [3] is “Intracellular activity was detected”.

With `C[C@H]1COCCN1c1nc2c(c(-c3ccc4ccccc4c3)n1)CCNCC2` [Respiri-1082], the “anti-mycobacterial activity” value with Mtb H37Ra^lux is “activity”. Also, the MIC50 stood at 4.02 µM (≈ 1.51 µg/mL) with Mtb H37Ra^lux (setting [8]) and 7.16 µM (≈ 2.68 µg/mL) in data set [3] (setting [11]). Besides, the IC50 in data set [1] (setting [9]) came to 3.03 µM. In data set [2] (setting [10]), the half-maximal cytotoxic concentration (CC50) at 60 h stood at 9.69 µM. Besides, in data set [3], the “intracellular activity” value is “Intracellular activity was detected”.

In data set [2] (setting [6]), `CC/C(=C(\c1ccccc1)c1ccc(OCCN(C)C)cc1)c1ccccc1` [Tamoxifen, reference compound] registered a CC50 at 60 h of 4.54 µM.

`CNc1cc(Oc2ccc(NS(=O)(=O)c3ccc(C)cc3)c(C(=O)O)c2)ccc1NS(=O)(=O)c1ccc(C)cc1` [Respiri-1075]: the MIC50 (in the data set with Mtb H37Ra^lux (setting [4]); in data set [3] (setting [7])) was over 25 µM throughout.

Turning to `C[C@H]1COCCN1c1nc2c(c(-c3csc4ccccc34)n1)CCNCC2` [Respiri-1093], the “anti-mycobacterial activity” value in the data set with Mtb H37Ra^lux is recorded as “activity”. Also, the MIC50 with Mtb H37Ra^lux (setting [8]) was 9.94 µM (≈ 3.78 µg/mL); in data set [3] (setting [11]), over 25 µM. Moreover, the IC50 in data set [1] (setting [9]) came to 6.22 µM. The same compound displayed a CC50 at 60 h in data set [2] (setting [10]) of over 25 µM.

As for `C[C@H]1COCCN1c1nc2c(c(-c3ccnc4ccccc34)n1)CCNCC2` [Respiri-1083], the MIC50 (in the data set with Mtb H37Ra^lux (setting [8]); in data set [3] (setting [11])) was over 25 µM throughout. Also, the IC50 in data set [1] (setting [9]) was found to be 2.34 µM. For the same compound, the cytotoxic concentration (CC50) at 60 h in data set [2] (setting [10]) is over 25 µM.

Take `O=C1C=CC(=O)N1Cc1ccc2c(c1)OCO2` [Respiri-1208]: the MIC50 with Mtb H37Ra^lux (setting [4]) was over 25 µM. In data set [1] (setting [5]), the IC50 turned out to be 4.83 µM. The compound also gave a CC50 at 60 h in data set [2] (setting [6]) of 15.2 µM.

For the compound `CCN(CC)c1cc(Oc2ccc(NS(=O)(=O)c3ccc(C)cc3)c(C(=O)O)c2)ccc1NS(=O)(=O)c1ccc(C)cc1` [Respiri-1180], the MIC50 in the data set with Mtb H37Ra^lux (setting [4]) was over 25 µM. The IC50 in data set [1] (setting [5]) was determined as 2.38 µM. For the same compound, in data set [2] (setting [6]), the 50% cytotoxic concentration (CC50) at 60 h was over 50 µM.

With `CN1C(=O)C2N=CNC2N(C)C1=O` (centres unmarked) [Respiri-1209], the MIC50 (in the data set on Mtb H37Ra^lux (setting [4]); in data set [3] (setting [7])) was over 25 µM in each case. Also, the IC50 in data set [1] (setting [5]) was 5.63 µM. In data set [2] (setting [6]), this compound came in with a 50% cytotoxic concentration (CC50) at 60 h of over 50 µM.

Take `C[C@H]1COCCN1c1nc2c(c(-c3ccc4ncccc4c3)n1)CCNCC2` [Respiri-1081]: the MIC50 (with Mtb H37Ra^lux (setting [8]); in data set [3] (setting [11])) was over 25 µM each time. In data set [1] (setting [9]), the IC50 is 3.75 µM. Further, in data set [2] (setting [10]), the CC50 at 60 h was over 25 µM.

For `CCCCNc1cc(Oc2ccc(NS(=O)(=O)c3ccc(C)cc3)c(C(=O)O)c2)ccc1NS(=O)(=O)c1ccc(C)cc1` [Respiri-1181], the MIC50 (with Mtb H37Ra^lux (setting [4]); in data set [3] (setting [7])) was over 25 µM each time. Moreover, in data set [1] (setting [5]), the IC50 was 1.66 µM. In addition, the CC50 at 60 h in data set [2] (setting [6]) was over 50 µM.

Turning to `COc1nc2ccc(Br)cc2cc1[C@@H](c1ccccc1)[C@@](O)(CCN(C)C)c1cccc2ccccc12` [Bedaquiline, reference compound], in the data set on Mtb H37Ra^lux (setting [4]), the MIC50 is 0.01 µM (≈ 0.00556 µg/mL). Also, the CC50 at 60 h in data set [2] (setting [6]) was over 50 µM.

For `CCNc1cc(Oc2ccc(NS(=O)(=O)c3ccc(C)cc3)c(C(=O)O)c2)ccc1NS(=O)(=O)c1ccc(C)cc1` [Respiri-1031], the MIC50 (in the data set on Mtb H37Ra^lux (setting [4]); in data set [3] (setting [7])) was over 25 µM throughout. Besides, the IC50 in data set [1] (setting [5]) came out at 2.16 µM.

For `Cc1ccn(-c2ncccn2)c(=O)c1C#N` [Respiri-1211], the MIC50 (in the data set with Mtb H37Ra^lux (setting [4]); in data set [3] (setting [7])) was over 25 µM in each case. Further, in data set [1] (setting [5]), the IC50 came out at 13 µM. This compound gave a 50% cytotoxic concentration (CC50) at 60 h in data set [2] (setting [6]) of over 50 µM.

In general, CC50 refers to the concentration that lowers cell viability or growth by half. Read a low CC50 as greater toxicity to the cells.
